# Measured values as given in US8283378B2, “Phenylurea inhibitors of the SOAT-1 enzyme and pharmaceutical/cosmetic compositions comprised thereof” (Galderma Research & Development, priority 2007, dated 2012).
# Target: T1, enzyme ACAT-1 (Homo sapiens, UniProt P35610)
# T1 construct: endogenous in cells; host or cells: HepG2
# T1 sequence (P35610 1-550): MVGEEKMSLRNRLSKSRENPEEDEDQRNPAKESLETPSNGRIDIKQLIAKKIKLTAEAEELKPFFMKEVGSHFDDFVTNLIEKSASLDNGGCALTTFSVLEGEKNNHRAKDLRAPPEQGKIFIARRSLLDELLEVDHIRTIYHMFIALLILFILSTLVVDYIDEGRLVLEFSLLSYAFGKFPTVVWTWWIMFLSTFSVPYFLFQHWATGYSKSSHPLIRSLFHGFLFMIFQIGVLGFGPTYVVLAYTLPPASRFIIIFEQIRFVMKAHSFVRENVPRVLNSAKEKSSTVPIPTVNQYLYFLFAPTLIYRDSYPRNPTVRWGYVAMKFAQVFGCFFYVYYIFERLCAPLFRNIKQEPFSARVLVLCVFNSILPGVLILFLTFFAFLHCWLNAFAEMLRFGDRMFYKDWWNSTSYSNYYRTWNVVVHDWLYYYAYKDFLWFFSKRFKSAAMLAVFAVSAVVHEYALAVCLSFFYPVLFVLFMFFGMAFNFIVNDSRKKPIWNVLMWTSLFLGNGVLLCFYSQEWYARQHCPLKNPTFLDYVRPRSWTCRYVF
# Experiment: primary HepG2 enzyme test: cell-based NBD-cholesterol fluorescence assay of ACAT-1 (SOAT-1) inhibition
# Settings: HepG2 cells, NBD-cholesterol 1 μg/ml, incubation 6 h at 37° C., fluorescence excitation 490 nm / emission 540 nm
# Procedure: The compounds (I) according to the invention, as well as their pharmaceutically acceptable salts, solvates and/or hydrates, display SOAT-1 enzyme inhibiting properties. This inhibitory effect on the SOAT-1 enzyme is measured by a primary HepG2 enzyme test, as described below.
# The compounds of formula (I) according to the invention were tested to evaluate their inhibitory activity with respect to the enzyme ACAT-1 based on the following work: “Identification of ACAT1- and ACAT2-specific inhibitors using a novel, cell based fluorescence assay: individual ACAT uniqueness”, J. lipid. Res (2004) vol 45, pages 378-386. The principle of this test is based on the use of NBD-cholesterol, an analogue of cholesterol with fluorescence depending on its environment. When it is in a polar environment it is weakly fluorescent, whereas in a non-polar environment it is strongly fluorescent. Free NBD-cholesterol localizes in the cell membranes and is weakly fluorescent in this polar environment. […]
# The following method is used: HepG2 cells are incubated in the presence of NBD-cholesterol (1 μg/ml) and of the test compound of formula (I) in black, transparent-bottom 96-well plates at a rate of 30000 cells per well. […] After adding 50 μl of lysis buffer (NaPO4 10 mM, Igepal 1%) the plates are agitated for 5 min and, read in fluorescence (excitation 490 nm, emission 540 nm) on a FUSION instrument (Perkin Elmer).
structure (smiles),measurement,value
"CC(C)c1cccc(C(C)C)c1NC(=O)NCC1(SCc2ccccc2)CCCCC1 [Compound (I.4), 1-(1-Benzylsulfanyl-cyclohexylmethyl)-3-(2,6-diisopropyl-phenyl)-urea]",IC50,0.071 µM
